Measured values from article PMC12726774, “HAEEPGP Peptide Efficiently Prevents Alzheimer's Disease Pathology in Vivo” (Alzheimer's & Dementia, 2025).
Read-outs that look alike come from different tables or passages of the source. Residues, ends and D or L forms follow the SMILES beside them. No end group written: not given here.

How the values were obtained:
in vivo = conditions: mouse, plasma, iv
Description: (§1) Abstract Background Currently, the only disease‐modifying therapy for Alzheimer's disease (AD) is monoclonal antibodies against beta‐amyloid (Aβ). […] Short peptides could be an alternative treatment to high‐molecular weight antibodies. They have been successfully tested against various neuropathologies. […] The disadvantage of short peptides is their rapid elimination from an organism. In this work, we added PGP amino acids to the HAEE C‐terminus to stabilize the peptide, studied the pharmacokinetics of HAEEPGP and its ability to suppress AD‐associated pathology. Method Direct interaction of HAEEPGP and Aβ peptides was measured by isothermal titration calorimetry. Pharmacokinetics and distribution to tissues of ^125I labeled HAEEPGP were studied after its intravenous injection in C57BL/6 or 5xFAD mice. HAEEPGP ability to prevent Aβ pathological effect on HMC3 microglial cells was assessed by flow cytometry and IL‐6 ELISA kit. HAEEPGP inhibition effect on AD pathology was studied in vivo using two animal models: transgenic C. elegans overexpressing human Aβ and 5xFAD mice. […] Supported by the Russian Science Foundation (grant #19‐74‐30007).

[1] = background statement, no reference given; cited from earlier work
Description: They have been successfully tested against various neuropathologies. […] The disadvantage ...

[2] = 125I labeled peptide
Description: as §1

Aβ = Aβ (Homo sapiens, UniProt P05067); assay: Isothermal titration calorimetry, interaction of HAEEPGP with Aβ; conditions: read-out: Kd of binding to Aβ
Sequence of Aβ (P05067 672-713 limits assumed): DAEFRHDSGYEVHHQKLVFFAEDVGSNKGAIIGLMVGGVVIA
Description: as §1

Row | Molecule | half-life (in vivo) [min] | BBB crossing [1] | toxic effect in vivo [1] | BBB crossing ([2]; intravenous injection, mice) | level in the mice brain over time ([2]; during an hour post-injection, intravenous) | level in the brain, 5xFAD vs wild type mice ([2]; intravenous, 5xFAD vs C57BL/6) | Kd (Aβ) [nM]
1 | C[C@H](NC(=O)[C@@H](N)Cc1c[nH]cn1)C(=O)N[C@@H](CCC(=O)O)C(=O)N[C@@H](CCC(=O)O)C(=O)O [HAEE] (H-HAEE-OH) | 17 | able to cross the BBB | no toxic effect | – | – | – | –
2 | HAEEPGP [HAEEPGP] | 56 ± 12 | – | – | propitiously crossed BBB | constantly increased | higher in 5xFAD than in wild type mice | 1640
